Paper PMC7961380, “A Systematic Study of the In Vitro Pharmacokinetics and Estimated Human In Vivo Clearance of Indole and Indazole-3-Carboxamide Synthetic Cannabinoid Receptor Agonists Detected on the Illicit Drug Market” (Molecules, 2021)
Values joined by “and” are separate entries in the source; they are usually repeats but may differ in a detail not shown here. Equal entries are not always repeated. Where two headings read alike, the source gives them in different places.

Tests used:
[1] = Plasma protein binding by equilibrium dialysis; assay type: in vitro ADME, human; conditions: human, pooled human plasma, pH 7.4, equilibrium dialysis 5 h, 37 °C
[2] = test system: pooled human cryopreserved hepatocytes (pHHeps); test: Metabolic stability, pooled human cryopreserved hepatocyte incubations; conditions: for Predicted In Vivo Hepatic Clearance, CLH: from pHHeps CLint, well-stirred model with plasma fu, Q 21 mL min^−1 kg^−1
[3] = as above; conditions: human, hepatocytes; for CLint scaled at 0.5 µM: Intrinsic clearance, pHHeps, alternative hepatocyte cell density 99x10^6 hepatocytes per gram liver; for half-life at 0.5 µM: T1/2 (min), pHHeps 0.25 million cells mL^−1, 0.5 µM, 37 °C, n ≥ 3 ± SD
[4] = Short-term plasma stability with and without esterase inhibitors; conditions: human, pH 7.4, Parent Compound Remaining (%), 3 h, 37 °C
[5] = Metabolic stability, pooled human liver microsome incubations; conditions: for Predicted In Vivo Hepatic Clearance, CLH: from pHLM CLint, well-stirred model with plasma fu, Q 21 mL min^−1 kg^−1; for CLint scaled at 0.5 µM / half-life at 0.5 µM: human, microsomes; for CLint scaled at 0.5 µM: pH 7.4, Intrinsic clearance; for half-life at 0.5 µM: pH 7.4, T1/2 (min), pHLM 0.5 mg mL^−1, 0.5 µM, NADPH, 37 °C; for half-life at 0.5 µM / Microsomal Intrinsic Clearance, CLint micr: n ≥ 3 ± SD
[6] = 10 µg mL^−1, read-out: PPB (%) (converted)
[7] = plasma, read-out: Fraction Unbound (fu)
[8] = pHHeps, 99x10^6 hepatocytes per gram liver
[9] = Esterase Inhibitors, pH 7.4, BNPP and PMSF 500 µM each
[10] = plasma, No Esterase Inhibitors, pH 7.4, pooled human plasma
[11] = pHLM, alternative microsomal scaling factor 32 mg microsomal protein per gram liver
[12] = pHLM, alternative microsomal scaling factor 45 mg microsomal protein per gram liver
[13] = pHLM, scaling factor 32 mg microsomal protein per gram liver
[14] = pHLM, scaling factor 45 mg microsomal protein per gram liver

SMILES | fraction unbound at 5 h, 10 µg mL^−1 [1, 6] | fraction unbound at 5 h, 10 µg mL^−1 [1, 7] | Predicted In Vivo Hepatic Clearance, CLH [2] [mL/min/kg] | Hepatic extraction ratio, EH ([2]; from pHHeps incubations) | Hepatic extraction ratio, EH [2, 8] | Predicted in vivo hepatic clearance, CLH [2, 8] [mL/min/kg] | % parent compound remaining, Average ([2]; pHHeps, 3 min) [%] | % parent compound remaining, Average ([2]; pHHeps, 6 min) [%] | % parent compound remaining, Average ([2]; pHHeps, 9 min) [%] | % parent compound remaining, Average ([2]; pHHeps, 15 min) [%] | % parent compound remaining, Average ([2]; pHHeps, 30 min) [%] | % parent compound remaining, Average ([2]; pHHeps, 45 min) [%] | % parent compound remaining, Average ([2]; pHHeps, 60 min) [%] | CLint scaled at 0.5 µM [3] [mL/min/kg] | half-life at 0.5 µM [3] [min] | remaining at 3 h, 5 µM [4, 9] [%] | remaining at 3 h, 5 µM [4, 10] [%] | Predicted In Vivo Hepatic Clearance, CLH [5] | Hepatic extraction ratio, EH ([5]; from pHLM incubations) | CLint scaled at 0.5 µM [5, 11] [mL/min/kg] | also measured
CC(C)[C@H](NC(=O)c1nn(Cc2ccc(F)cc2)c2ccccc12)C(N)=O [(S)-AB-FUBINACA (8), N-(1-amino-3-methyl-1-oxobutan-2-yl)-1-(4-fluorobenzyl)-1H-indazole-3-carboxamide] | 0.021 | 0.021 ± 0.0044 | 2.06 ± 0.58 | 0.10 ± 0.028 | 0.09 ± 0.026 | 1.92 ± 0.55 | 93.3 | 86.0 | 85.5 | 85.4 | 72.4 | 69.5 | 66.6 | 101 ± 32 | 76 ± 24 | 103 ± 2.5 | 104 ± 1.1 | 0.34 mL/min/kg and 0.34 ± 0.09 mL/min/kg | 0.02 and 0.02 ± 0.004 | 10 | CLint scaled at 0.5 µM [5, 12]: 14.1 mL/min/kg; half-life at 0.5 µM [5]: 118 ± 28 min; % parent compound remaining, Average ([5]; pHLM, 3 min): 87.3%; % parent compound remaining, Average ([5]; pHLM, 6 min): 87.3%; % parent compound remaining, Average ([5]; pHLM, 9 min): 85.0%; % parent compound remaining, Average ([5]; pHLM, 15 min): 84.2%; % parent compound remaining, Average ([5]; pHLM, 30 min): 79.6%; Microsomal Intrinsic Clearance, CLint micr ([5]; pHLM): 0.012 ± 0.003 mL min^−1 mg Microsomal Protein^−1; Hepatic extraction ratio, EH [5, 13]: 0.01 ± 0.003; Predicted in vivo hepatic clearance, CLH [5, 13]: 0.21 ± 0.05 mL/min/kg; Hepatic extraction ratio, EH [5, 14]: 0.01 ± 0.004; Predicted in vivo hepatic clearance, CLH [5, 14]: 0.29 ± 0.07 mL/min/kg
C=CCCCn1nc(C(=O)N[C@@H](C(=O)OC)C(C)(C)C)c2ccccc21 [(R)-MDMB-4en-PINACA (5), methyl 3,3-dimethyl-2-[1-(pent-4-en-1-yl)-1H-indazole-3-carboxamido] butanoate] | 0.019 | 0.019 ± 0.0071 | 5.16 ± 0.70 | 0.25 ± 0.033 | 0.23 ± 0.032 | 4.86 ± 0.67 | 80.8 | 77.7 | 70.3 | 58.1 | 38.0 | 26.6 | 20.8 | 335 ± 61.6 | 22 ± 3.6 | 89.4 ± 3.4 | 87.2 ± 6.9 | 4.94 ± 0.39 mL/min/kg | 0.24 ± 0.019 | 208 | CLint scaled at 0.5 µM [5, 12]: 292 mL/min/kg; half-life at 0.5 µM [5]: 5.5 ± 0.59 min; % parent compound remaining, Average ([5]; pHLM, 3 min): 68.4%; % parent compound remaining, Average ([5]; pHLM, 6 min): 48.2%; % parent compound remaining, Average ([5]; pHLM, 9 min): 32.3%; % parent compound remaining, Average ([5]; pHLM, 15 min): 14.6%; % parent compound remaining, Average ([5]; pHLM, 30 min): 2.5%; Microsomal Intrinsic Clearance, CLint micr ([5]; pHLM): 0.253 ± 0.026 mL min^−1 mg Microsomal Protein^−1; Hepatic extraction ratio, EH [5, 13]: 0.16 ± 0.014; Predicted in vivo hepatic clearance, CLH [5, 13]: 3.32 mL/min/kg; Hepatic extraction ratio, EH [5, 14]: 0.21 ± 0.017; Predicted in vivo hepatic clearance, CLH [5, 14]: 4.38 ± 0.36 mL/min/kg
